Values quoted from earlier work in US20020132013A1, “Liquid cautery catheter” (priority 2001, published 2002).

Key:
[1] = tested on: hemorrhagic radiation induced proctitis; details: topical application
[2] = tested on: uterocomual tubal junction

Structure (SMILES) | efficacy in control of bleeding [1] | complications reported ([2]; 35 healthy, parous women) | bilateral tubal occlusion, share of study participants ([2]; 35 healthy, parous women, hysterosalpingography 4 months after the procedure) [%] | pregnancies reported in participants who demonstrated tubal occlusion ([2]; participants with tubal occlusion)
C=O [formalin] | demonstrated the efficacy |  |  | 
C=C(C#N)C(=O)OC [Methyl 2-cyanoacrylate] |  | No complications were reported | 88.2 | no pregnancies reported
